The subject of test [1] is naive CD62LhiCD4+CD25− LN T cells. As to the kind of experiment: Foxp3 induction in newly activated naive CD4 T cells (intracellular staining). The test is classed as cell-based, mouse. How it is done:
Mouse strains, cell sorting and culture Animal work was carried out according the Animals (Scientific Procedures) Act, UK. Lymph node (LN) cells were stained, analysed and sorted by flow cytometry as described (Cobb et al 2005 J. Exp. Med. 201: 1367-1373). Intracellular staining for Foxp3 protein was done as advised by the manufacturers (eBiosciences.com). The phosphorylation syatus of S6 ribosomal protein was determined using anti pS6 Ser235/236 (Cellsignaling cat.no. 2211, http://www.cellsignal.com) using the eBioscience Foxp3 staining kit and anti rabbit IgG-FITC or IgG-Cy5 (Jackson Immunoresearch). For induction of Foxp3 expression, sorted LN CD4+ CD25− CD62Lhi T cells were cultured at 1-3×10^6/ml with plate bound anti-TCRβ. […] After 18 hours the cells were either left in place for continued TCR stimulation or moved to uncoated wells with the indicated additives. To assess regulatory function, CD4 T cells cultured as indicated were titrated into round bottom wells containing either 1×10^5 CFSE labeled total LN cells or 5×10^4 CFSE labeled CD4^+ CD25^− T cells and 1×10^5 mitomycin-C treated (25 μg/ml, 20 min, 37° C.) T cell depleted splenocytes with the indicated concentrations of anti CD3 (2C11, Pharmingen). CD4 T cell CFSE profiles were recorded between 48 and 72 hours later.
Mice, Cell Sorting and Culture. Animal work was carried out according to the Animals (Scientific Procedures) Act, UK. Lymph node (LN) cells or thymocytes from wild type were stained, analysed and sorted by flow cytometry as described (Thompson et al., 2007 Immunity VoI 26 pp 335-344) from wild type (C57BL/6, BALB/c or C57BL/6×129) mice or from Rag1 deficient H2^b AND TCR transgenic mice. Antigen presenting cells were derived from bone marrow in the presence of GM-CSF and incubated with antigenic peptide. Intracellular staining for Foxp3 protein was done as advised by the manufacturers (eBiosciences.com). The phosphorylation status of S6 ribosomal protein was determined using anti pS6 Ser235/236 (Cell Signaling cat.no. 2211, http://www.cellsignal.com) using the eBioscience Foxp3 staining kit and anti rabbit IgG-FITC or IgG-Cy5 (Jackson ImmunoResearch). […] After 18 hours the cells were either left in place for continued TCR stimulation or moved to uncoated wells with the indicated additives. To assess regulatory function, CD4 T cells cultured as indicated were titrated into round bottom wells containing either 1×10^5 CFSE labeled total LN cells or 5×10^4 CFSE labeled CD4^+CD25^− T cells and 1×10^5 mitomycin-C treated (25 μg/ml, 20 min, 37° C.) T cell depleted splenocytes with the indicated concentrations of anti CD3 (2C11, Pharmingen). CD4 T cell CFSE profiles were recorded between 48 and 72 hours later.

Another test addresses PI3KC2α (Homo sapiens, UniProt O00443). As to conditions: unit inferred; read-out: Specificity for PI3KC2α (IC50 determined in vitro); cited from earlier work.
A further test addresses PI3KC2β (Homo sapiens, UniProt O00750). As to conditions: unit inferred; read-out: Specificity for PI3KC2β (IC50 determined in vitro); cited from earlier work.
The next test concerns the target PI3KC2γ (Homo sapiens, UniProt O75747). As to conditions: unit inferred; read-out: Specificity for PI3KC2γ (IC50 determined in vitro); cited from earlier work.
Another test concerns the target hsVPS34 (Homo sapiens, UniProt Q8NEB9). As to conditions: unit inferred; read-out: Specificity for hsVPS34 (IC50 determined in vitro); cited from earlier work.
In the next test the target is PI4KIIα (Homo sapiens, UniProt Q9BTU6). Conditions: unit inferred; read-out: Specificity for PI4KIIα (IC50 determined in vitro); cited from earlier work.
A further test deals with PI4KIIIα (Homo sapiens, UniProt P42356). Conditions: unit inferred; read-out: Specificity for PI4KIIIα (IC50 determined in vitro); cited from earlier work.
A further test deals with PI4KIIIβ (Homo sapiens, UniProt Q9UBF8). Conditions: unit inferred; read-out: Specificity for PI4KIIIβ (IC50 determined in vitro); cited from earlier work.
In the next test the target is ATR (Homo sapiens, UniProt Q13535). Conditions: unit inferred; read-out: Specificity for ATR (IC50 determined in vitro); cited from earlier work.
Another test concerns the target ATM (Homo sapiens, UniProt Q13315). As to conditions: unit inferred; read-out: Specificity for ATM (IC50 determined in vitro); cited from earlier work.
In a further test the target is DNA-PK (Homo sapiens, UniProt P78527). Conditions: unit inferred; read-out: Specificity for DNA-PK (IC50 determined in vitro); cited from earlier work.
Another test addresses mTORC1 (Homo sapiens, UniProt P42345). As to conditions: unit inferred; read-out: Specificity for mTORC1 (IC50 determined in vitro); cited from earlier work.
Another test concerns the target mTORC2 (Homo sapiens, UniProt P42345). As to conditions: unit inferred; read-out: Specificity for mTORC2 (IC50 determined in vitro); cited from earlier work.
Test [2] has as its target PI4P5KIα (Homo sapiens, UniProt Q99755). As to conditions: first PI4P5KIα line; unit inferred; read-out: Specificity for PI4P5KIα (IC50 determined in vitro); cited from earlier work.
Test [3] concerns PI4P5KIα. Conditions: second PI4P5KIα line; unit inferred; read-out: Specificity for PI4P5KIα (IC50 determined in vitro); cited from earlier work.
The next test addresses T1, PI5P4KIIβ (Homo sapiens, UniProt P78356).
T1 sequence (P78356 1-416): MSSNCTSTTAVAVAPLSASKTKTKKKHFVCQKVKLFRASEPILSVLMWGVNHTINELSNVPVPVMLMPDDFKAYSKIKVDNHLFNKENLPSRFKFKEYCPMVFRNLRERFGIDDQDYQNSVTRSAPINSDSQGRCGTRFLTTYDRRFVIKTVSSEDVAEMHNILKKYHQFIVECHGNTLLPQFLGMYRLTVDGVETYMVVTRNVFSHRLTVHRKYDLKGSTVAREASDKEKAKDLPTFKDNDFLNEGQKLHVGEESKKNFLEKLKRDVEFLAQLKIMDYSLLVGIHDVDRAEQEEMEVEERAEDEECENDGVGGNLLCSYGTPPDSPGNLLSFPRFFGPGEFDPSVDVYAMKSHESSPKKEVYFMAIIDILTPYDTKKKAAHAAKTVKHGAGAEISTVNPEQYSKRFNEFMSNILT
As to conditions: unit inferred; read-out: Specificity for PI5P4KIIβ (IC50 determined in vitro); cited from earlier work.

The target of another test is p110α (Homo sapiens, UniProt P42336). Conditions: unit inferred; read-out: Specificity for p110α (IC50 determined in vitro); cited from earlier work.
Another test addresses p110β (Homo sapiens, UniProt P42338). Conditions: unit inferred; read-out: Specificity for p110β (IC50 determined in vitro); cited from earlier work.
A further test concerns the target p110δ (Homo sapiens, UniProt O00329). Conditions: unit inferred; read-out: Specificity for p110δ (IC50 determined in vitro); cited from earlier work.
The target of another test is p110γ (Homo sapiens, UniProt P48736). As to conditions: unit inferred; read-out: Specificity for p110γ (IC50 determined in vitro); cited from earlier work.

Chain of ATM (Q13315 whole entry, species assumed): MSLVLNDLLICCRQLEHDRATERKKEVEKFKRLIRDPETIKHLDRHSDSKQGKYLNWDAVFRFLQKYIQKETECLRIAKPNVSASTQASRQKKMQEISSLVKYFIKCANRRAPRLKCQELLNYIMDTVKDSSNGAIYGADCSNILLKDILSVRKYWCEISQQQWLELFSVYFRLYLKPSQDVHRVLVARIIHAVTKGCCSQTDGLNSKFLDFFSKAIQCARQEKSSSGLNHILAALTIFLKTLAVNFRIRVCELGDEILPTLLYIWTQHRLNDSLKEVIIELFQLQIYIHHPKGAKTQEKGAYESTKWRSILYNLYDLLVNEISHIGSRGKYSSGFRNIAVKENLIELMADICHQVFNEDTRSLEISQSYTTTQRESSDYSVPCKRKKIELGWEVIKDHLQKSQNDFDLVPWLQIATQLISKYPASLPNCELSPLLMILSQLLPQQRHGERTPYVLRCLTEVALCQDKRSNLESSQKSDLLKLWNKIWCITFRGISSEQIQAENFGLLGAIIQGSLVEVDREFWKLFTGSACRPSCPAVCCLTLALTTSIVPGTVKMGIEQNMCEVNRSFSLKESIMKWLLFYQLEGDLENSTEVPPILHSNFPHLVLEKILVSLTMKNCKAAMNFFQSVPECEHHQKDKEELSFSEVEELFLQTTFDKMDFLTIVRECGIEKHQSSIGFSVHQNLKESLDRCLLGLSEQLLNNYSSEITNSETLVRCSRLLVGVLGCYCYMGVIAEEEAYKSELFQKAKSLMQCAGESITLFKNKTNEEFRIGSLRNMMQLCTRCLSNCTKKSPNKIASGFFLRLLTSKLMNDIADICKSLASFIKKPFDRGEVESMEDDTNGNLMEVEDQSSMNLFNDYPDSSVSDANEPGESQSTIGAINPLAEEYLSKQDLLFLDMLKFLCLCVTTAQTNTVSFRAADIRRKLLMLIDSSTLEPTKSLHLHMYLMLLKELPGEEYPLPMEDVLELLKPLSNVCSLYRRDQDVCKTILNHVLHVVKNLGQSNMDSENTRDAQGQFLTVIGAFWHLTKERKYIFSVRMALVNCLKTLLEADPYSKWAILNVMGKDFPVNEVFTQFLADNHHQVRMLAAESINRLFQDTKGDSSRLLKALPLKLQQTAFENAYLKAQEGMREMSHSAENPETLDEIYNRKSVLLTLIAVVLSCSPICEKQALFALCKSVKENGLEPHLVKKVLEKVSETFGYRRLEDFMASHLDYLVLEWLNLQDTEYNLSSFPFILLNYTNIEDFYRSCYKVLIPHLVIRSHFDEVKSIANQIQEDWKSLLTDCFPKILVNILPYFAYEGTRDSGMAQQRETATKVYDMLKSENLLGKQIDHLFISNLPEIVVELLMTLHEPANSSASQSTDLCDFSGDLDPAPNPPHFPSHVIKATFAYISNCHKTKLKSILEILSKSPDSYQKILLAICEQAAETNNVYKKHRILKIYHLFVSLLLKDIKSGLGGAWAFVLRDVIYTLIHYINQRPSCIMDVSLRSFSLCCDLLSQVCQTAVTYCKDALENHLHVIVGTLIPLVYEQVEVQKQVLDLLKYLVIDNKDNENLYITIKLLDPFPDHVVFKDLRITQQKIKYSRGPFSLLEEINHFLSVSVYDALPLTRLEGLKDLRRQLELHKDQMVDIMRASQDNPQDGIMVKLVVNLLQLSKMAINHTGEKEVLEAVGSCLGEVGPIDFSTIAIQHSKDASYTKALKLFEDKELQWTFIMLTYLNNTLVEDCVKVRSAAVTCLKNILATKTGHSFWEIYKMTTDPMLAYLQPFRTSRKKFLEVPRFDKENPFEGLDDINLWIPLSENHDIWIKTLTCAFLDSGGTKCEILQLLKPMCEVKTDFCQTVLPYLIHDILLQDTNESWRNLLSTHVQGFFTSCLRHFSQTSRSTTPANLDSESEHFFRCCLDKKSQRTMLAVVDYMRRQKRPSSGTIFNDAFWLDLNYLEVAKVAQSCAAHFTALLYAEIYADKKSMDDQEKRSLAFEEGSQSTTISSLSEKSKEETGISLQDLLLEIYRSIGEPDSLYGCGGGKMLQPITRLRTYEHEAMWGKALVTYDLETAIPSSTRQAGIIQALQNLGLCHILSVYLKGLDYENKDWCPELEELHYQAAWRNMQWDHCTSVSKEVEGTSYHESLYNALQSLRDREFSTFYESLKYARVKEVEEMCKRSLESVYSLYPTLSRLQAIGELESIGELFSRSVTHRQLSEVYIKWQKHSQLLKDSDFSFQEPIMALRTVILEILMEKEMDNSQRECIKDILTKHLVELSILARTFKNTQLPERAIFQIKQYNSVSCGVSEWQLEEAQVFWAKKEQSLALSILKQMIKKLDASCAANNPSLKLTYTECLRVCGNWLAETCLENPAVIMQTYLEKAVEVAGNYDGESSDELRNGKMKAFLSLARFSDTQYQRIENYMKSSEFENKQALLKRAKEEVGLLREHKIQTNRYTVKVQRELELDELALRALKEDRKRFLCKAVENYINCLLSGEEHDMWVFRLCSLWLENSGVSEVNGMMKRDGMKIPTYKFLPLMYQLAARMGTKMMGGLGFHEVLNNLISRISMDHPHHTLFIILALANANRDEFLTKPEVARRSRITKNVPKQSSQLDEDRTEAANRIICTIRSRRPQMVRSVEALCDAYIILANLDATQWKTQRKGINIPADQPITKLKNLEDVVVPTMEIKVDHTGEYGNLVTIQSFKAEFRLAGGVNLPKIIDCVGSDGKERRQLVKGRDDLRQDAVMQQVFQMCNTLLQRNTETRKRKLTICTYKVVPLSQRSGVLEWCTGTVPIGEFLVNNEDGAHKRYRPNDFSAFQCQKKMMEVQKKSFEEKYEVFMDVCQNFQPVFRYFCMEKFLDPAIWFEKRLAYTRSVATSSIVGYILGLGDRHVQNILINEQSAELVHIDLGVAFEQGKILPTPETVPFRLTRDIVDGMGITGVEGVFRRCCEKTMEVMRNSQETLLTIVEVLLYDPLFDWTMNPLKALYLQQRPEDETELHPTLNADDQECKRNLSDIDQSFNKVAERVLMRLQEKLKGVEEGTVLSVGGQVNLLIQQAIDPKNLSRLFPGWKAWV
Chain of PI4KIIIα (P42356 whole entry): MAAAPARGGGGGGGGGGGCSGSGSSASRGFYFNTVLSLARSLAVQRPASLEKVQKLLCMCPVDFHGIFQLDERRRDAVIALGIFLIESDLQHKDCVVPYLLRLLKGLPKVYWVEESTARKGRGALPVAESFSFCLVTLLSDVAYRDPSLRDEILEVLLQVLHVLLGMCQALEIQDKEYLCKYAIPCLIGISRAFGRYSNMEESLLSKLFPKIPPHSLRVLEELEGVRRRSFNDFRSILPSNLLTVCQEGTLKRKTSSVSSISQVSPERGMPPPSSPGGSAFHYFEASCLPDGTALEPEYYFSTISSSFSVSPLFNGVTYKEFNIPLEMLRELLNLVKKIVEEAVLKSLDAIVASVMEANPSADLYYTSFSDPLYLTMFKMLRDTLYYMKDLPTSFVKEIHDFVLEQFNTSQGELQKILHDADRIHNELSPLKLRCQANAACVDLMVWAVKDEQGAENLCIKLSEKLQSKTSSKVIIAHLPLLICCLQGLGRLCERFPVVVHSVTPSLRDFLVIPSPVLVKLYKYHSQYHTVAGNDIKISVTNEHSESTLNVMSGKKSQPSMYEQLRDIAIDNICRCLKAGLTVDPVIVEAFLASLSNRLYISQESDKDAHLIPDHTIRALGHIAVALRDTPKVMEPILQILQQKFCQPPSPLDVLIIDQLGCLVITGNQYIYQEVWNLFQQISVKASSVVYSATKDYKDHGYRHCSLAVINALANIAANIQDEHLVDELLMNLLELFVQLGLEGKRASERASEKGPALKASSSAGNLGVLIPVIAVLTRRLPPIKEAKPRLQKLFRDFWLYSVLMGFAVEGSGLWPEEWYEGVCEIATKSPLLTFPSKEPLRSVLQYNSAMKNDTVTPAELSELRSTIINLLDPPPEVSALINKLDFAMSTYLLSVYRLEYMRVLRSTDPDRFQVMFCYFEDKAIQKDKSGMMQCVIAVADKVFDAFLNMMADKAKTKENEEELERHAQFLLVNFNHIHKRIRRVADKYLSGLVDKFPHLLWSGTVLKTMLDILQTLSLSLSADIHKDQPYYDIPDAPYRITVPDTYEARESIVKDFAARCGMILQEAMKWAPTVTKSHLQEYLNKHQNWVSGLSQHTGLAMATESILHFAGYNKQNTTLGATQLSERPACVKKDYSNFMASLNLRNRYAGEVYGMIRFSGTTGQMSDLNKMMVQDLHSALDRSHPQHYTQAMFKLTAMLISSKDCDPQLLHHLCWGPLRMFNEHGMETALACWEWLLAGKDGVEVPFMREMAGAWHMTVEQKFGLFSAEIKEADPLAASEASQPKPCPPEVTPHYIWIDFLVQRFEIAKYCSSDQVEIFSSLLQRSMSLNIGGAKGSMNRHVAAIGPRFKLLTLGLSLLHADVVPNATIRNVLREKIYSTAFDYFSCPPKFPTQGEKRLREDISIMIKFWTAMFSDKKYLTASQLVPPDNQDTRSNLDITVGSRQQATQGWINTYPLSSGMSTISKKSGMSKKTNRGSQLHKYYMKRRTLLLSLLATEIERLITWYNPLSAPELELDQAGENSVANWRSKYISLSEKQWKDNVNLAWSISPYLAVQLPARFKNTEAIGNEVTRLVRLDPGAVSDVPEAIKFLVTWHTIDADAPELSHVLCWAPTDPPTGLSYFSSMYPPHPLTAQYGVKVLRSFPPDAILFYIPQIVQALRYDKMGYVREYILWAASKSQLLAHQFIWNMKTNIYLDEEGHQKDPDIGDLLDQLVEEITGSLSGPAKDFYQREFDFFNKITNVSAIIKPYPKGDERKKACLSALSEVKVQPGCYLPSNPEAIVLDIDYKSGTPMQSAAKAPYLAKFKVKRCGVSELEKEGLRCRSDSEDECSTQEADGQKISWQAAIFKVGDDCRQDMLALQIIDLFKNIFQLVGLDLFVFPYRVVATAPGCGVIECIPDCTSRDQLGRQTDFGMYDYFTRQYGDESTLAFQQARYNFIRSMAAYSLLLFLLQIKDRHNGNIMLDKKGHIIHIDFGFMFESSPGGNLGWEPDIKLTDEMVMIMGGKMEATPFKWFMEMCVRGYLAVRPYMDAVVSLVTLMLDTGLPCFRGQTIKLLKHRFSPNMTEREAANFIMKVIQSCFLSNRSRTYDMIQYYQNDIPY

As for `Cc1ccccc1-n1c(Cn2cnc3c(N)ncnc32)nc2cccc(C)c2c1=O` [IC87114], the “Foxp3 induction at 1 μM” value in test [1] (1 μM) worked out at 15%. Also, the “increase in Foxp3 expressing cells over and above TCR deprivation alone” value in test [1] (IC-87114 down to 0.01 μM) is given as 10-15%. The half-maximal inhibitory concentration (IC50) at PI3KC2α, at PI3KC2β, at PI3KC2γ, on hsVPS34, on PI4KIIα and on PI4KIIIα was greater than 100 µM each time. Also, the IC50 at PI4KIIIβ, at ATR, on ATM, on DNA-PK, on mTORC1 and at mTORC2 was greater than 100 µM throughout. For the same compound, the IC50 at PI4P5KIα [2], in the test with PI4P5KIα [3] and on PI5P4KIIβ was greater than 100 µM throughout.

Regarding `Cc1ccccc1Oc1cccc2c(=O)cc(N3CCOCC3)[nH]c12` [TGX115], in test [1] (0.1 μM), the “effect on Foxp3 expression at 0.1 μM” value is “did not affect Foxp3 expression”. Further, the “effect on Foxp3 expression at 10 μM” value is on record as “slight impact on Foxp3 expression” in [1] and “very little effect” in test [1] (listed as TGX-115). Further, the IC50 on p110α was 61 µM; on p110β, 0.13 µM; on p110δ, 0.63 µM; on p110γ it was 100 µM; on PI3KC2α, greater than 100 µM; on PI3KC2β, 50 µM. In addition, the half-inhibitory concentration (IC50) was 100 µM at PI3KC2γ; 5.2 µM at hsVPS34; greater than 100 µM at PI4KIIα; greater than 100 µM on PI4KIIIα; greater than 100 µM on PI4KIIIβ; greater than 100 µM at ATR. Further, the IC50 at ATM is 20 µM; at DNA-PK it was 1.2 µM; at mTORC1, greater than 100 µM; at mTORC2, greater than 100 µM; on PI4P5KIα [2], greater than 100 µM; in the test with PI4P5KIα [3] it was greater than 100 µM. Further, on PI5P4KIIβ, the IC50 is greater than 100 µM.

The values are drawn from US9314485B2, “Use of PI3K M-TOR and AKT inhibitors to induce FOXP3 expression and generate regulatory T cells” (Medical Research Council, priority 2006, dated 2016).
